Measurements as given in ChEMBL document CHEMBL5465560, “Selectivity Literature for EUbOPEN Chemogenomic Library” (2024).

Key:
[1] = molecular target: Calcium/calmodulin-dependent protein kinase kinase 2 (Homo sapiens) (UniProt Q96RR4); experiment: Selectivity interaction (KinomeScan (DiscoverX)) EUB0000229b CAMKK2; settings: at 10 µM
[2] = molecular target: T1, Serine/threonine-protein kinase TAO2 (Homo sapiens) (UniProt Q9UL54); experiment: Selectivity interaction (KinomeScan (DiscoverX)) EUB0000045b TAOK2
T1 sequence (whole entry): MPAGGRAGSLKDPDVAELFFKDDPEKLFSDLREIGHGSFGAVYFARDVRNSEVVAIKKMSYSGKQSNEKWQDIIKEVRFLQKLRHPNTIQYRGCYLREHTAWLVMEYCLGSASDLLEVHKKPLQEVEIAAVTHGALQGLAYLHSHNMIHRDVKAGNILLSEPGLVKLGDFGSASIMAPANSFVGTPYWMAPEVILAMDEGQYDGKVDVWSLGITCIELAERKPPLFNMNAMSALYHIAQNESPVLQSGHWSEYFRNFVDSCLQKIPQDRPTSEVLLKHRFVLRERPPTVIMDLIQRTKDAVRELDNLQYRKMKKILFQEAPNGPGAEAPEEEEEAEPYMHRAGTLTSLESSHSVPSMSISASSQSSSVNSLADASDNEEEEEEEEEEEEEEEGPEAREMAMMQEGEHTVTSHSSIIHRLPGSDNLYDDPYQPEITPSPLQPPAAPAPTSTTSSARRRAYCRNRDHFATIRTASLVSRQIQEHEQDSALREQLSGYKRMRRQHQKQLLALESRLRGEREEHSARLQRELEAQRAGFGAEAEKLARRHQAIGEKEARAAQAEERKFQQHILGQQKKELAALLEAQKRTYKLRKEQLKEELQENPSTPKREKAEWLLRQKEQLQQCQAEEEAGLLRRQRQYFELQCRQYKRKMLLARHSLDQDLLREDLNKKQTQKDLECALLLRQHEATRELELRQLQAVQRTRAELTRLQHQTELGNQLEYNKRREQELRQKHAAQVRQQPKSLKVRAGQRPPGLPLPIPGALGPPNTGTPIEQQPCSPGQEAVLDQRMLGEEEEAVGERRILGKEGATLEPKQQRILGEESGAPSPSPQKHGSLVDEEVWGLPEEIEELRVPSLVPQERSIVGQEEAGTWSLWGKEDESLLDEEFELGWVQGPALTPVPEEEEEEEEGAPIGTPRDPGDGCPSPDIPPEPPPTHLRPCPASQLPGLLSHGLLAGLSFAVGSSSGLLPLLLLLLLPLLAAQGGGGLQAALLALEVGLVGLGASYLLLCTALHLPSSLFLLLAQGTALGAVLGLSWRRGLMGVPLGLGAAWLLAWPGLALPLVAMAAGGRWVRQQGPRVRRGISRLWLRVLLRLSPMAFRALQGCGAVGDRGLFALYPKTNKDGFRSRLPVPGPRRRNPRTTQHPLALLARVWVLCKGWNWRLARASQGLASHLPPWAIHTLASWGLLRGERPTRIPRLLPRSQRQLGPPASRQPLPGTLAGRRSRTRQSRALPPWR

[3] = molecular target: Casein kinase I isoform epsilon (Homo sapiens, UniProt P49674); experiment: Selectivity interaction (KinomeScan (DiscoverX)) EUB0000045b CSNK1E
[4] = molecular target: Fibroblast growth factor receptor 1 (Homo sapiens, UniProt P11362); experiment: Selectivity interaction (Kinase screening (Nanosyn)) EUB0000604a FGFR1
[5] = molecular target: T2, Phosphatidylinositol 4,5-bisphosphate 3-kinase catalytic subunit delta isoform (Homo sapiens) (UniProt O00329); experiment: Selectivity interaction (ProQinase) EUB0000171b PIK3CD
T2 sequence (whole entry): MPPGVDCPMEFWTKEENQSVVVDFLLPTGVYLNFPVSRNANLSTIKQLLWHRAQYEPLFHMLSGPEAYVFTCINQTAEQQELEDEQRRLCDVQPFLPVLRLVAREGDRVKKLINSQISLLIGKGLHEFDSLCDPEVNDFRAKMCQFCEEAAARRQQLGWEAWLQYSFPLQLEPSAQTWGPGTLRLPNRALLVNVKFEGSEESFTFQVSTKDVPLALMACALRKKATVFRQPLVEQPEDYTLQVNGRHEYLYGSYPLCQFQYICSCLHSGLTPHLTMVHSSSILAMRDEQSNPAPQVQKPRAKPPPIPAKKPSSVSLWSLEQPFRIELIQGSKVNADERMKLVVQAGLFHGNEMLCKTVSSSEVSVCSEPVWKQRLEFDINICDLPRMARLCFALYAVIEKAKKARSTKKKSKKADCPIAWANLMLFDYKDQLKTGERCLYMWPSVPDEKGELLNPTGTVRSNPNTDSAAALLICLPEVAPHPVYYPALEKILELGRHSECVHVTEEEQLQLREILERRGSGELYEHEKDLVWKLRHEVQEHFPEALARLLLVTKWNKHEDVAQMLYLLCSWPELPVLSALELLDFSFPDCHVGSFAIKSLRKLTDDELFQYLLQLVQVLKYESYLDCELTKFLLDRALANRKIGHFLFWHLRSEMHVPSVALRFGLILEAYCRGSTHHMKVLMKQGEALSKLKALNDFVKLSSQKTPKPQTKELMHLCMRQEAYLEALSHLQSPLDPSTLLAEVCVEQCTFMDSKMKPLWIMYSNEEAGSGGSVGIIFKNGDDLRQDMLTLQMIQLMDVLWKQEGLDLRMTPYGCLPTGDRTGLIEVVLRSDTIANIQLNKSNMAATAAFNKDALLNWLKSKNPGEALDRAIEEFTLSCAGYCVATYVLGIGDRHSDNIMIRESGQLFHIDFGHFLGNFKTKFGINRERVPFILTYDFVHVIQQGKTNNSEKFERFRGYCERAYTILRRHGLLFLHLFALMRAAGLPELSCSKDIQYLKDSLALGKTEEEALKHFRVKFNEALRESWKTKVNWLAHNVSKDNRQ

[6] = molecular target: Serine/threonine-protein kinase 35 (Homo sapiens) (UniProt Q8TDR2); experiment: Selectivity interaction (KinomeScan (DiscoverX)) EUB0001619a STK35; settings: at 1 µM
[7] = molecular target: T3, Mitogen-activated protein kinase 12 (Homo sapiens) (UniProt P53778); experiment: Selectivity interaction (KinomeScan (DiscoverX)) EUB0000607a MAPK12; settings: at 10 µM
T3 sequence (whole entry): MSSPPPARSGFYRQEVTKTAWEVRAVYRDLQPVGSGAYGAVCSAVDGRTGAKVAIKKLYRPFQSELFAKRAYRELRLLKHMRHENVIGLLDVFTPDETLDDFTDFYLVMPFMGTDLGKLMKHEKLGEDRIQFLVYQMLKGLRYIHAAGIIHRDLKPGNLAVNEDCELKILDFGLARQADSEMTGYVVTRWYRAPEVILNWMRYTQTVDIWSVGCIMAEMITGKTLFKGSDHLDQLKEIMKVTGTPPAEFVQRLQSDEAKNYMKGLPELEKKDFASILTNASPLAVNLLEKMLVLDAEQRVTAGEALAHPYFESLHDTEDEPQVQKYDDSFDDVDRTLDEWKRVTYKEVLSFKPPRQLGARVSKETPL

Casein kinase I isoform epsilon, sequence (P49674 whole entry, looked up, canonical isoform): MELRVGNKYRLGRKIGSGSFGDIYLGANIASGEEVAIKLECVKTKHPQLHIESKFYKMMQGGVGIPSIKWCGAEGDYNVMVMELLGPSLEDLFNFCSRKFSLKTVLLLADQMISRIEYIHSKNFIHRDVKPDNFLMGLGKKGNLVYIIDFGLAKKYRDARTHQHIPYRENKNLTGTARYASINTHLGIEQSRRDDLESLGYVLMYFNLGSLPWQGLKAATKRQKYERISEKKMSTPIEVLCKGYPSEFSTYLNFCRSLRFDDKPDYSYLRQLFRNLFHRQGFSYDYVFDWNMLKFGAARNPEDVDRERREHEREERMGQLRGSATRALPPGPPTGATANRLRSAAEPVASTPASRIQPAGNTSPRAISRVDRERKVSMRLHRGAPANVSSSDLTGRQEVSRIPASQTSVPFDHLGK
Calcium/calmodulin-dependent protein kinase kinase 2 (Homo sapiens), sequence (Q96RR4 2-588 limits assumed): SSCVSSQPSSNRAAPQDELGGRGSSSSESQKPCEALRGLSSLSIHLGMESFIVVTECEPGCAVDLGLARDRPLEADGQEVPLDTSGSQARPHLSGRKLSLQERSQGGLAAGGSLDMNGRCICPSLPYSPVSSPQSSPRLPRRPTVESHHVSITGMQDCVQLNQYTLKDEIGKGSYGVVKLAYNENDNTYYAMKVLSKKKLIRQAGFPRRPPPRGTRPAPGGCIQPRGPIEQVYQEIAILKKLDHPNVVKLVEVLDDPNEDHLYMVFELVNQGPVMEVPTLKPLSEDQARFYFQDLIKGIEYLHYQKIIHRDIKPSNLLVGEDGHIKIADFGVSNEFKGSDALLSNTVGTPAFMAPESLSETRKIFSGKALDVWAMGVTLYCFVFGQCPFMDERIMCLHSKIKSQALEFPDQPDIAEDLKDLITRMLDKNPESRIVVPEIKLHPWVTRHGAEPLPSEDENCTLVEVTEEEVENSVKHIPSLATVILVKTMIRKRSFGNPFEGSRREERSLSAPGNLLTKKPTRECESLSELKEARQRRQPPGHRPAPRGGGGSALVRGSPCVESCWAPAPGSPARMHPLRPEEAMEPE
Fibroblast growth factor receptor 1, sequence (P11362 22-822 limits assumed): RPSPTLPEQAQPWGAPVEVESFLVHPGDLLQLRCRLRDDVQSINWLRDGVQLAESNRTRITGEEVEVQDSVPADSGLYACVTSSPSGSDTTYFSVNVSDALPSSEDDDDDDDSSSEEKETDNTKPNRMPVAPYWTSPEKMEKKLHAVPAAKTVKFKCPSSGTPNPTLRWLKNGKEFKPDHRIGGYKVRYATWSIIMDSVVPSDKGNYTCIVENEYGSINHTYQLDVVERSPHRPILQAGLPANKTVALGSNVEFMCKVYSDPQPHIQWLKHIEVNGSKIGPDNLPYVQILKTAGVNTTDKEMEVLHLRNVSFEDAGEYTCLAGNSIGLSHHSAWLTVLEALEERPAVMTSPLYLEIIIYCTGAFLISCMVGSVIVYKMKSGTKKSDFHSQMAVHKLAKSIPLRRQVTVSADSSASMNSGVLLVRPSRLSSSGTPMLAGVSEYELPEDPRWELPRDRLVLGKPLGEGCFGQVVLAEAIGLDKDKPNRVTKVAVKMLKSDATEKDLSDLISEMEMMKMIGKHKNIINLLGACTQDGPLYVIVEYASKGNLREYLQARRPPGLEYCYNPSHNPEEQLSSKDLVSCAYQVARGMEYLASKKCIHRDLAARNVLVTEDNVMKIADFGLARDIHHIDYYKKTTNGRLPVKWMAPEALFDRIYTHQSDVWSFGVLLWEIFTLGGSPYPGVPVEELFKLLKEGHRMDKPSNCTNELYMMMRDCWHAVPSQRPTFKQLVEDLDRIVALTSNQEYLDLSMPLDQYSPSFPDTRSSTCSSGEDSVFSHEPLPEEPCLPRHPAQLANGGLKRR
Serine/threonine-protein kinase 35 (Homo sapiens), sequence (Q8TDR2 whole entry): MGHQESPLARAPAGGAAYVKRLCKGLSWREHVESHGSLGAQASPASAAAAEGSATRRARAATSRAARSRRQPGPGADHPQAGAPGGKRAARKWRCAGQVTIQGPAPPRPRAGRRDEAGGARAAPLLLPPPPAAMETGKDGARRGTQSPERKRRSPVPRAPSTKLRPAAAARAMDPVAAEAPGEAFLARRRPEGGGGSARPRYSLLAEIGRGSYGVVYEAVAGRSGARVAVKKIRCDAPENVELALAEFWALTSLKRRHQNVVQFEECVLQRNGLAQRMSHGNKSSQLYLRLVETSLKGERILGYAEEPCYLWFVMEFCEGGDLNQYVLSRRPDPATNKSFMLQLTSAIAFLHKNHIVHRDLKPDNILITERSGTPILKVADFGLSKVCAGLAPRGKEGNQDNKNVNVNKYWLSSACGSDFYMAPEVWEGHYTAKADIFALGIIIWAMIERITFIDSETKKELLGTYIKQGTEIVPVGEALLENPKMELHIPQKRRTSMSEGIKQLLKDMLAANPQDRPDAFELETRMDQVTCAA

Structure (SMILES): COc1cc(N(C)c2ccnc3ccc(C(F)(F)F)cc23)cc(OC)c1OC
- % binding [1]: 85%

Structure (SMILES): C=CC(=O)Nc1cc(-n2c(=O)ccc3cnc4ccc(-c5ccc(NS(C)(=O)=O)cc5)cc4c32)ccc1C
- % of control ([2]; at 1 µM): 80%
- % of control ([2]; at 10 µM): 100%
- % of control ([3]; at 1 µM): 100%
- % of control ([3]; at 10 µM): 100%

Structure (SMILES): Cc1cnc(Nc2ccc(F)cc2Cl)nc1-c1c[nH]c(C(=O)N[C@H](CO)c2cccc(Cl)c2)c1
- % of inhibition [4]: 3%

Structure (SMILES): C=CC(=O)Nc1cccc(C(=O)Nc2ccc(Nc3cc(-c4[nH]c(SC)nc4C)ccn3)cc2)c1
- % of control ([5]; at 1 µM): 119%
- % of control ([5]; at 5 µM): 113%

Structure (SMILES): N#Cc1cccc(-c2c[nH]c3ncnc(N4CCOCC4)c23)c1
- % of control [6]: 62%

Structure (SMILES): CNC(=O)Nc1ccc(-c2nc(N3CC4CCC(C3)O4)c3cnn(C4CCC5(CC4)OCCO5)c3n2)cc1
- % of control [7]: 54%
